Measurements as given in US20070072874A1, “Aminoheteroaryl compounds as protein kinase inhibitors” (Sugen, Inc., priority 2003, published 2007).

These compounds were tested against T1, GST fusion protein containing the Met kinase domain (Homo sapiens, UniProt P08581) (assay: MET transphosphorylation assay (ELISA, poly(glu-tyr) substrate)). Details: not given.
T1 construct: Purified GST fusion protein containing the Met kinase domain, SUGEN, Inc
Type: biochemical

T1 sequence (P08581 1078-1345 limits assumed): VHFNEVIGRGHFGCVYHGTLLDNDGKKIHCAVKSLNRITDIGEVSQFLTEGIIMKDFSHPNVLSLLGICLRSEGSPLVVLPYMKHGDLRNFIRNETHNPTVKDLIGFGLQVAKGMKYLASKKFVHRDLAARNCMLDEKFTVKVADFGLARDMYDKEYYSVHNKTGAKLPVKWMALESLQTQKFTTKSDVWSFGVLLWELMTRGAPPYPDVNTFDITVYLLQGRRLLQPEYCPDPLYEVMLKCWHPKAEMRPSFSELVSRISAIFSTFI

Compound | IC50 [nM]
CC(Oc1cc(-c2ccc(OCCN3CCCC3)cc2)cnc1N)c1c(Cl)ccc(F)c1Cl (stereo not drawn) [Example I-355, 3-[1-(2,6-Dichlaro-3-fluoro-phenyl)-ethoxy]-5-[4-(2-pyrrolidin-1-yl-ethoxy)-phenyl]-pyridin-2-ylamine] | 680
CC(Oc1cc(-c2ccc(OCCC3CCCN3C)cc2)cnc1N)c1c(Cl)ccc(F)c1Cl (stereo not drawn) [Example I-356, 3-[1-(2,6-Dichloro-3-fluoro-phenyl)-ethoxy]-5-{4-(2-[1-methyl-pyrrolidin-2-yl)-ethoxy]-phenyl)-pyridin-2-ylamine] | 790
CC(Oc1cc(C#CCNC(=O)CN2CCCC2)cnc1N)c1c(Cl)ccc(F)c1Cl (stereo not drawn) [Example I-426, N-(3-{6-Amino-5-[1-(2,6-dichloro-3-fluoro-phenyl)-ynyl)-2-pridin-1-y-ehoxy]-pyridin-3-yf}-prop-2-acetamide] | < 9.1
CC(Oc1cc(-c2ccc(C(=O)N3CCN(C)CC3)cn2)cnc1N)c1c(F)ccc(F)c1Cl (stereo not drawn) [Example I-517, {6′-Amino-5′-[1-(2-chloro-3,6-difluoro-phenyl)-ethoxy]-[2,3′]bipyridinyl-5-yl)-(4-methyl-piperazin-1-yl)-methanone] | 131
Nc1ncc(-c2ccc(NS(=O)(=O)CCNC3CC3)cc2)nc1OCc1c(F)ccc(F)c1Cl [II-20, 2-Cyclopropylamino-ethanesulfonic acid {4-[5-amino-6-(2-chloro-3,6-difluoro-benzyloxy)-pyrazin-2-yl]-phenyl}-amide] | 1200
CN(C)[C@H]1CCN(C(=O)c2cccc(-c3cnc(N)c(OCc4c(F)ccc(F)c4Cl)n3)c2)C1 [II-54, {3-[5-Amino-6-(2-chloro-3,6-difluoro-benzyloxy)-pyrazin-2-yl]-phenyl}-[(3S)-3-dimethylamino-pyrrolidin-1-yl]-methanone] | 1450

Further lines, results first:

IC50 [nM] | Compound
> 20000 | Nc1ncc(-c2cccnc2)cc1OCc1ccccc1 [Example I-489, 5-Benzyloxy-[3,3′]bipyridinyl-6-ylamine]
282 | Nc1ncc(-c2cccnc2)cc1OCc1c(F)ccc(F)c1Cl [Example I-501, 5-(2-Chloro-3,6-difluoro-benzyloxy)-[3,3′]bipyridinyl-6-ylamine]

Same assay, conditions: Table 1; several values in one cell are separated by /

IC50 [nM] | Compound
> 20000 | Nc1ncc(Br)cc1OCc1c(F)cccc1Cl [I(e), 5-Bromo-3-(2-chloro-6-fluoro-benzyloxy)-pyridin-2-ylamine]
